Measured values taken from EP3856897B1 (Anadolu Universitesi, priority 2018, dated 2020).
Where two headings read alike, the source gives them in different places.

What was measured:
[1] = molecular target: T1, mu class glutathione S-transferase from Manila clam Ruditapes philippinarum (RpGSTµ) (Ruditapes philippinarum, UniProt G9HSP7); details: from Bathige et al., 2014, cited from earlier work
T1 sequence (G9HSP7 1-217): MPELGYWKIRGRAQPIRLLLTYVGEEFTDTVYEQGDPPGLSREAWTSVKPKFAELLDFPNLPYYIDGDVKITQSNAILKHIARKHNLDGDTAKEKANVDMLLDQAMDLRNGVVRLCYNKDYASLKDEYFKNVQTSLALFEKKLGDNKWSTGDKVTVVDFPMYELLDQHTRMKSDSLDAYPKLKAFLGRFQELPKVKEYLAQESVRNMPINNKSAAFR

[2] = molecular target: T2, recombinant Tetrahymena thermophila Glutathione S Transferase Mu34 (TtGSTm34-8xHis) enzyme, SEQ ID NO: 1 (Tetrahymena thermophila, UniProt I7M2D2); assay: Enzyme kinetics of recombinant TtGSTm34-8xHis for substrates GSH and CDNB (spectrophotometric at 340 nm, Lineweaver-Burk); format: biochemical; details: 200 mM potassium phosphate buffer, 25°C; for Km: 7 substrate concentrations 0.1125-3.6 mM, the other substrate (GSH or CDNB) held at 0.9 mM, Lineweaver-Burk graph; for Kcat: kcat = Vmax/Et, the other substrate held at 0.9 mM
T2 sequence (I7M2D2 39-257): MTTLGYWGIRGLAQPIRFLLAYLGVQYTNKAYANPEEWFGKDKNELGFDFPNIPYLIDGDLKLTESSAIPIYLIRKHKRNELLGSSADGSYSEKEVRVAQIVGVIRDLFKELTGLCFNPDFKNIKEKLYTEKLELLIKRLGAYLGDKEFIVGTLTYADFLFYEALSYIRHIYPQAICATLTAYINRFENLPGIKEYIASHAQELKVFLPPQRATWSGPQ
Protocol: Determination of GST enzyme activities of affinity purified proteins was performed spectrophotometrically in the presence of 1-chloro-2,4-dinitrobenzene (CDNB) as substrate. […] The enzyme activities were measured with BioTek The Synergy ™ HT Elisa device using Gen5 software. The O.D values for enzyme activity were determined at 340 nm for 30 minutes with 2 minutes intervals, using BioTek The Synergy™ HT Elisa Reader kinetics program.
Unit value of activity is defined as the amount of enzyme that catalyzes 1 µmol substrate at 25°C (CDNB extinction coefficient340 nm = 9.6 mM^-1 cm^-1). The enzyme activities were first calculated in terms of U/ml. Then these values were divided by protein concentrations that were determined by Bradford method (Pierce™ Coomassie Plus Bradford Assay Reagent Cat no: 23238). This way specific activities were calculated in terms of U/mg.
Then activity measurements were carried out in 200 mM potassium phosphate buffer at 25°C for 7 different CDNB concentrations: 0,1125 mM, 0,225 mM, 0,45 mM, 0,9 mM, 1,8 mM, 2,7 mM ve 3,6 mM. A 1/V^- 1 [CDNB] Lineweaver-Burk graph was drawn according to the results obtained (Figure 8). With this graphical aid, Km and Vmax values for CDNB were determined.
These calculations were followed by quantitative protein assay (Bradford) and total enzyme amount (Et) was determined. Kcat value, which reflects the enzyme turnover number was calculated using the formula given below: kcat = Vmax /Et [formula]
One way of comparing the catalytic effects of various enzymes or the conversion of different substrates to the product with the same enzyme is to find the specificity constant (V0) for the reactions. The specificity constant is calculated by the following formula: V0 = kcat /km [formula]

Row | Km ([2]; read-out: Km) | Compound | Km [1] | Km [2] | Kcat [2] | Km ([1]; read-out: Km)
1 |  | O=[N+]([O-])c1ccc(Cl)c([N+](=O)[O-])c1 [CDNB, 1-Chloro-2,4-dinitrobenzene] | 560 µM | 470 µM | 195.4 s⁻¹ | 
2 | 540 µM | N[C@@H](CCC(=O)N[C@@H](CS)C(=O)NCC(=O)O)C(=O)O [GSH, glutathione] |  |  | 186.9 s⁻¹ | 1030 µM
